The subject of data set [1] is Human cervical cancer cells, Hela cells. The data set is classed as cell-based. The protocol: Human cervical cancer cells, Hela cells, were dispersed with a DMEM medium containing 10% fetal bovine serum and spread to a 96-well plate, 8000 cells per well. After the cells were attached to the walls, Ir-cR5, Ir-cR8 and Ir-aR8 of 2, 4, 8, 16, 32, 64 and 128 μM and the corresponding oligoarginine polypeptides cR5, cR8 and aR8 were added and incubated for 24 h. The cell activity was detected by a thiazole blue method and the half-maximal inhibitory concentration (IC50) was calculated.

A short description of data set [2]: concentration in blood after tail vein injection, ICP-MASS of iridium. As to conditions: mouse, in vivo, BALB/c mice, 100 μL of 500 μM, read-out: elimination half-life in the blood. The protocol:
36 BALB/c mice were equally divided into two groups and injected with 100 μL of Ir-cR8 and Ir-cR8-HSA nanoparticles (500 μM) through tail veins, separately. After 0.5 h, 2 h, 4 h, 8 h, 24 h and 48 h, eyes were removed for blood sampling and centrifuged at 10000 rpm for 10 min. […] of centrifuged serum was added with 1 mL of high chlorine acid and 3 mL of aqua regia, digested at 260° C. for 2 h, and added with water to 10 mL. The content of metal iridium in the blood at each time point was detected by ICP-MASS.

Data set [3] deals with T1, human serum albumin (HSA) (human, UniProt P02768 25-609).
T1 construct: Dissolved in water and used in solution
Kind of data set: dynamic light scattering of peptide-albumin assembly. The protocol:
The detection was performed at 25° C. using the dynamic light scattering apparatus, and only the peaks of the formed polypeptide albumin nanoparticles were calculated.

Like-named read-outs stand apart in the source and are kept apart here. Where a SMILES comes first, the peptide text is derived from it.

T1 sequence (P02768 25-609 limits assumed): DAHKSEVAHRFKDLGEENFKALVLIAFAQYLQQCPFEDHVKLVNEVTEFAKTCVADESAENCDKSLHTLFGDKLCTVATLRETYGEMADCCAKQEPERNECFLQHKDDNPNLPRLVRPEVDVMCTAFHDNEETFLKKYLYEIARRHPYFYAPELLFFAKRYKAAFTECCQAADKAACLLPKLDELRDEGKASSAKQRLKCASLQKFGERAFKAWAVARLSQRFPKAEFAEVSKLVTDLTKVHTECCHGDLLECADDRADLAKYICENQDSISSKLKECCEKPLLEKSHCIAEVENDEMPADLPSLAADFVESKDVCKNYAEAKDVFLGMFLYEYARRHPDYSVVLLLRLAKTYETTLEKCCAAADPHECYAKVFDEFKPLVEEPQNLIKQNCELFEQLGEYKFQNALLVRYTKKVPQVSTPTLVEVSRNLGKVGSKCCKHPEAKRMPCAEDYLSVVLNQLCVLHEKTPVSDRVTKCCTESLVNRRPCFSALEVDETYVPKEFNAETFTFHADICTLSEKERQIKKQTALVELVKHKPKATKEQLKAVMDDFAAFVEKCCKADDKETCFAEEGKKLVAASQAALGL

On to `CC(=O)NC(Cc1c[nH]cn1)C(=O)NC(CCCNC(=N)N)C(=O)NC(CCCNC(=N)N)C(=O)NC(CCCNC(=N)N)C(=O)NC(CCCNC(=N)N)C(=O)NC(CCCNC(=N)N)C(=O)NC(CCCNC(=N)N)C(=O)NC(CCCNC(=N)N)C(=O)NC(CCCNC(=N)N)C(=O)NC(Cc1c[nH]cn1)C(N)=O` (centres unmarked) [cR8] (Ac-HRRRRRRRRH-NH2; configuration not given here), for which the IC50 in data set [1] (Hela cells, incubated for 24 h, read-out: IC50) was > 100 µM.

As to `CC(=O)N[C@@H](Cc1c[nH]cn1)C(=O)N[C@@H](Cc1c[nH]cn1)C(=O)N[C@@H](CCCNC(=N)N)C(=O)N[C@@H](CCCNC(=N)N)C(=O)N[C@@H](CCCNC(=N)N)C(=O)N[C@@H](CCCNC(=N)N)C(=O)N[C@@H](CCCNC(=N)N)C(=O)N[C@@H](CCCNC(=N)N)C(=O)N[C@@H](CCCNC(=N)N)C(=O)N[C@@H](CCCNC(=N)N)C(N)=O` [aR8] (Ac-HHRRRRRRRR-NH2; N-terminus and C-terminus assumed), the concentration for half-maximal inhibition (IC50) in data set [1] (24 h) is > 100 µM.

As to `CC(=O)NC(Cc1c[nH]cn1)C(=O)NC(CCCNC(=N)N)C(=O)NC(CCCNC(=N)N)C(=O)NC(CCCNC(=N)N)C(=O)NC(CCCNC(=N)N)C(=O)NC(CCCNC(=N)N)C(=O)NC(Cc1c[nH]cn1)C(N)=O` (centres unmarked) [cR5] (Ac-HRRRRRH-NH2; configuration not given here), in data set [1] (24 h), the half-maximal inhibitory concentration (IC50) was > 100 µM.

As for `CC(=O)N[C@@H](Cc1c[nH]cn1)C(=O)N[C@@H](CCCNC(=N)N)C(=O)N[C@@H](CCCNC(=N)N)C(=O)N[C@@H](CCCNC(=N)N)C(=O)N[C@@H](CCCNC(=N)N)C(=O)N[C@@H](CCCNC(=N)N)C(=O)N[C@@H](CCCNC(=N)N)C(=O)N[C@@H](CCCNC(=N)N)C(=O)N[C@@H](CCCNC(=N)N)C(=O)N[C@@H](Cc1c[nH]cn1)C(N)=O` [Ir-cR8] (Ac-HRRRRRRRRH-NH2), the half-life in data set [2] was < 30 min.

For cholesterol-RRRRRRRR-NH2 [chol-RRRRRRRR (SEQ ID NO: 2)-CONH2 (CR)], the binding result in data set [3] is reported as “binds”.

In the case of Ac-KKKKHHKKKK-NH2 (also: coordinated with iridium complex from [Ir(ppy)2(H2O)2]OTf (1:1), also called Formula VII) [iridium-coordinated oligopolypeptide (Ir-mK8)], the binding result in data set [3] is reported as “binds”.

For the molecule Ac-FWLFLRRRRRRRR-NH2 [CH3CO-FWLFLRRRRRRRR (SEQ ID NO: 1)-CONH2 (FR)], in data set [3], the binding result is “binds”.

As for Ac-HKKKKKKKKH-NH2 (also: coordinated with iridium complex from [Ir(ppy)2(H2O)2]OTf (1:1), also called Formula VIII) [iridium-coordinated oligopolypeptide (Ir-cK8)], the binding result in data set [3] is given as “binds”.

Broadly, the IC50 is the concentration at which inhibition is half-maximal. By half-life is commonly meant the time needed for the level to fall by half in the phase considered.

(Values after patent US20240261365A1, “POLYPEPTIDE ALBUMIN NANOPARTICLE, PREPARATION METHOD THEREFOR, AND APPLICATION THEREOF” (SUZHOU INSTITUTE OF NANO-TECH AND NANO-BIONICS (SINANO) , …, priority 2020, published 2024).)
